These results are taken from US9316638B2, “Reagents for reducing leukocyte interference in immunoassays” (Abbott Point of Care Inc., priority 2010, dated 2016).

The text on assay [1]:
While it is more common for a blood sample used in an immunoassay performed in a laboratory to be drawn from a vein, where point-of-care (or bedside, e.g. Emergency Room, Operating Room) testing is done, it is not uncommon for the sample to be drawn from an artery. […] To assess the impact of an arterial sample on the present assay, simulated arterial samples were generated and tested. […] Simulated samples were created with a tonometer using venous blood collected in an EDTA tube. The tonometer equilibrates the blood with a predetermined gas composition.
Note these samples were not enriched as described above.

Assay [2] in a line: glucose and oxygen concentrations in treated EBS samples (i-STAT CG8+ cartridges). It is filed as biochemical, human. The settings on record: OX 4.0 IU per mL, Glu 700 mg/dL.
Method: In the first group the enzyme is anticipated to remove substantially all the oxygen and the co-reactant glucose is added in substantial excess. The second group relies on glucose already in the sample to react with the enzyme. The third group is a control with added glucose and no enzyme.
Note that i-STAT® CG8+ cartridges (Abbott Point of Care, New Jersey, USA) were used to determine the glucose and oxygen concentrations.
The “Sample 2” set of data was obtained where the treatment occurs in a closed syringe to prevent any oxygen being introduced from ambient air. […] The “Sample 3” data reflects opening the syringe about 20 minutes after the initial runs to allow ambient air access. This sample was run at the 40 minute mark. […] The “Sample 1” data in FIG. 28A is a control EBS+Glu only.
The next assay has as its system leukocytes. Kind of assay: BNP immunoassay signal slope (AmpActSlope) as indicator of leukocyte interference in enriched buffy blood samples (EBS). It is filed as cell-based, human.

Method for leukocytes: The experiments described below were performed on a BNP assay, specifically an i-STAT® BNP cartridge (Abbott Point of Care, Princeton, N.J., USA) or a partially modified version thereof.
As an experimental aid to understanding the affect of leukocytes on whole-blood immunoassays, it is desirable to create an enriched buffy (blood) sample (EBS). […] In the experiments described herein, the EBS constituted approximately a ten-fold increase in the buffy concentration, i.e. roughly 90% of the plasma and red cells were removed. The hematocrit value (Hct) of the sample was therefore maintained in the normal range, roughly 50-60%.
As a baseline indicator of leukocyte interference, a cut-off value of a signal rate of change above 0.05 nA per second, was used (see right side y-axis, AmpActSlope). […] In the first group the enzyme is anticipated to remove substantially all the oxygen and the co-reactant glucose is added in substantial excess. The second group relies on glucose already in the sample to react with the enzyme. The third group is a control with added glucose and no enzyme.
With respect to the first group (EBS+OX+Glu), the initial oxygen concentration of about 200 mm Hg falls to about 10 mm Hg after 50 minutes, and the glucose concentration drops from 700 to about 100 mg/dL over the same period. During this period immunoassays were run to determine the AmpActSlope value.
To further characterize these effects, a study was run on a larger sample donor pool (15 donors multiple runs), as shown in FIG. 27. FIG. 27 is a scatter plot where the desirable AmpActSlope value is less than 0.05 and greater than −0.03 nA per second. In addition, in this particular experiment a maximum desirable sensor threshold current (ParamActDoc) was also set at 8.0 nA. The desirable result was therefore to minimize samples falling into the five segments around the target zone.

Take glucose oxidase: the “inhibition of phagocytosis in arterial blood” value in assay [1] (glucose oxidase 6.0 IU and 12.0 IU per mL) is given as “sufficient to inhibit phagocytosis”. Further, the “partial pressure of oxygen in the sample” value in assay [1] (simulated arterial blood, initial PO2 about 150 mm Hg, glucose oxidase 6.0 IU and 12.0 IU per mL) is reported as “below 50 mm Hg”. For the same substance, the “change in glucose and PO2” value in assay [1] (tonometered whole blood, glucose oxidase 6 and 12 IU per mL, no added glucose) is “decreased glucose and PO2”. Besides, the “glucose concentration after treatment” value in assay [2] (OX+Glu from 700 after 50 minutes) was “below 20 mg/dL”. For the same substance, in assay [2] (initial about 200 mm Hg, OX+Glu value after 50 minutes), the “oxygen concentration (PO2) after treatment” value was “about 50 mm Hg”. The “assayed samples with AmpActSlope below 0.05 nA per second” value in the assay with leukocytes (EBS, OX 4.0 IU per mL, Glu 700 mg/dL, FIG. 26) is 9 out of 13. Also, the “reduction in number of assays with slope above the desirable threshold” value with leukocytes (addition of glucose oxidase, in general) is “about 90%”. The “difference in assays beyond threshold, treated vs untreated” value with leukocytes (treated 1.0% vs untreated 13.4%, FIG. 27) is listed as 92.1%. Besides, in the assay on leukocytes (treated EBS+OX, N=287, 15 donors, FIG. 27), the “assays beyond threshold (AmpActSlope <0.05 and >-0.03 nA per second, ParamActDoc max 8.0 nA)” value is listed as 1.0%. The “glucose oxidase concentration in the sample found preferable” value with leukocytes (venous samples) was more than 3 IU per mL.
